The term Kd denotes the equilibrium constant for the complex coming apart.

In experiment [1] the test system is EcpGEBO5.1. Briefly: Growth response of EcpGEBO5.1 for xanthine alkaloids (plate selection assay). The format is cell-based, Escherichia coli. To be noted: for Growth, Selection: ampicillin 50 μg/mL, spectinomycin 80 μg/mL, chloramphenicol 30 μg/mL; for Growth, No Selection: plates without spectinomycin and chloramphenicol. The protocol:
The growth response of EcpGEBO5.1 for 4 different xanthine alkaloids was determined empirically using a selection assay with varying concentrations xanthine-based compounds: theophylline, xanthine, theobromine and caffeine.
Procedure: 300-400 colony forming units were plated on plates containing ampicillin (50 μg/mL), spectinomycin (80 μg/mL), chloramphenicol (30 μg/mL) and the indicated concentration of xanthine-based compound—see Table 2: Dissociation constants (KJ for the xanthines with the aptamer region (mCTC8-4 aptamer) previously determined (Jenison et al., 1994). No selection means plates without spectinomycin and chloramphenicol. (+) means growth was observed. (−) means no growth was observed. (˜) means reduced growth was observed.

Another experiment has as its target mCTC8-4 aptamer. To be noted: previously determined (Jenison et al., 1994); cited from earlier work.
Experiment [2] has as its system EcpGEBO5.1. Put plainly: Spontaneous resistance of EcpGEBO5.1 in single and dual antibiotic selection (plating). Format: cell-based, Escherichia coli. To be noted: for Growth on antibiotic plate: LB agar, chloramphenicol 30 μg/mL and/or spectinomycin 80 μg/mL; for Colonies on single selection plates (in words): three plates each, 24 h of incubation. Here is the method:
pGEBO5.1 was transformed into E. coli Dh10B cells (forming EcpGEBO5.1) using standard methods known to the skilled person. To test whether the double selection system solved the problem of spontaneous resistance, plating of up to 1.3×10^8 EcpGEBO5.1 cells was performed in 10 replicates on LB agar media containing spectinomycin (80 μg/mL) and chloramphenicol (30 μg/mL) (‘dual selection’). As a control, plating on plates containing only chloramphenicol (30 μg/mL) or spectinomycin (80 μg/mL) (‘single selection’) was each performed in triplicate (See Table 1). Each plate was incubated for 72 hours. Of the 10 plates with dual selection no colonies were observed within the first 48 hours of incubation. […] Therefore, it appears that the probability of a single mutation to confer spontaneous resistance to one antibiotic is significant whereas the probability of a simultaneous double mutation to confer spontaneous resistance to both antibiotics is effectively nil.

The subject of a further experiment is EcpGEBO5.1 + pZE21. Briefly: Growth response to xanthine in M9 minimal medium, control strain. The format is cell-based, Escherichia coli. To be noted: for OD600 of EcpGEBO5.1 + pZE21: selection (chloramphenicol 30 μg/ml, spectinomycin 80 μg/ml), 16 h. The protocol: (§1) In order to test the hypothesis, growth experiments with and without xanthine was performed. First, in order eliminate the putative contribution of any background mutation of the genome or of the pGEBO5.1 assay plasmid the library plasmid encoding the putative xanthine permease (pZE21_1H) from the AB95D01 soil metagenomic library was extracted and retransformed in strain EcpGEBO5.1. Instead of testing the strain in LB-medium, xanthine-free M9 minimal medium was used to test the effect of defined xanthine concentrations. Strain EcpGEBO5.1 transformed with the empty cloning vector pZE21 (EcpGEBO5.1+pZE21) was used as a control. Both strains were inoculated in 3 ml M9 minimal medium supplemented with kanamycin 50 μg/ml and ampicillin 50 μg/ml and grown overnight. The next day a new 3 ml culture was prepared under same conditions and inoculated by transferring 30 μl from the initial culture. At exponential phase (when the optical density at 600 nm (0D600) had reached ˜0.5) the culture was used to inoculate 200 μl M9 minimal selective media in a microtiterplate with varying concentrations of xanthine (Table below). Inoculums were diluted such that the initial OD600 of each culture was exactly 0.01. The microtiter plate was incubated at 37° C. in an ELx808 Absorbance Microtiterplate Reader from Biotek with shaking at 200 rpm. OD600 was measured after 16 h and the average and standard deviation was calculated from three biological replicates of each xanthine concentration. When grown in concentrations of xanthine ranging from 0 mM to 1 mM but no chloramphenicol or spectinomycin both strains were unaffected by the presence of xanthine. When applying selection (chloramphenicol 30 μg/ml and spectinomycin 80 μg/ml), growth was observed only for the strain harbouring the xanthine permease containing plasmid (pZE21_1H) and only when xanthine was added (Table 3). The experiment confirms the prediction that the DNA insert is encoding a xanthine permease protein, and that the increased xanthine uptake enables growth under selective conditions.

A further experiment concerns EcpGEBO5.1 + pZE21_1H. Briefly: Growth response to xanthine in M9 minimal medium, xanthine permease strain. To be noted: for OD600 of EcpGEBO5.1 + pZE21_1H: selection (chloramphenicol 30 μg/ml, spectinomycin 80 μg/ml), 16 h. Format: cell-based, Escherichia coli. Here is the method:
as §1

Setting [3] is: 1.3 × 10^6 CFU plated (1 ul), 24 h growth.
Setting [4] is: 1.3 × 10^6 CFU plated (1 ul), 48 h growth.
The mark [5] stands for this setting: 1.3 × 10^6 CFU plated (1 ul), 72 h growth.
Where [6] appears, read: 1.3 × 10^7 CFU plated (10 ul), 24 h growth.
Setting [7] is: 1.3 × 10^7 CFU plated (10 ul), 48 h growth.
[8] abbreviates: 1.3 × 10^7 CFU plated (10 ul), 72 h growth.
Where [9] appears, read: xanthine 0 mM to 1 mM, no chloramphenicol or spectinomycin.

Entries after “also recorded” stand apart in the source; their conditions may differ.

Regarding `Cn1cnc2c1c(=O)[nH]c(=O)n2C` [Theobromine, theobromine], in the experiment on EcpGEBO5.1 [1] (1 mM xanthine compound), the “Growth, Selection” value was “−” and the “Growth, No Selection” value is recorded as “+”. Besides, on mCTC8-4 aptamer, the dissociation constant (Kd) is above 500 µM.

With `Cn1c(=O)c2[nH]cnc2n(C)c1=O` [Theophylline, theophylline], in the experiment with EcpGEBO5.1 [1] (0.1 mM xanthine compound), the “Growth, No Selection” value is given as “+”. In the experiment on EcpGEBO5.1 [1] (2 mM xanthine compound), the “Growth, Selection” value is on record as “+” and the “Growth, No Selection” value is “+”. Further, the Kd on mCTC8-4 aptamer was 0.32 ± 0.13 µM.

Turning to `CN[C@@H]1[C@H](O)[C@H](NC)[C@H]2O[C@@]3(O)C(=O)C[C@@H](C)O[C@H]3O[C@@H]2[C@H]1O` [spectinomycin], the “Growth on antibiotic plate” value in the experiment on EcpGEBO5.1 [2] (setting [3]) is reported as “+ (‘+’ single colonies (1-1000))”; in the experiment on EcpGEBO5.1 [2] (setting [4]) it was “++”; in the experiment with EcpGEBO5.1 [2] (setting [5]) it was “++”; in the experiment on EcpGEBO5.1 [2] (setting [6]) it was “+ (‘+’ single colonies (1-1000))”; in the experiment with EcpGEBO5.1 [2] (setting [7]) it was “++”; in the experiment with EcpGEBO5.1 [2] (setting [8]) it was “++”. Further, in the experiment on EcpGEBO5.1 [2], the “Colonies on single selection plates (in words)” value is on record as “numerous colonies”.

`Cn1c(=O)c2c(ncn2C)n(C)c1=O` [Caffeine, caffeine]: in the experiment on EcpGEBO5.1 [1] (3 mM xanthine compound), the “Growth, Selection” value is on record as “−” and the “Growth, No Selection” value was “+”. In the experiment with EcpGEBO5.1 [1] (7 mM xanthine compound), the “Growth, Selection” value is reported as “−”. For the same compound, on mCTC8-4 aptamer, the Kd was 3500 ± 1500 µM.

For the compound `O=c1[nH]c(=O)c2[nH]cnc2[nH]1` [Xanthine, xanthine], the “Growth, Selection” value in the experiment with EcpGEBO5.1 [1] (1 mM xanthine compound) is recorded as “−”. In the experiment on EcpGEBO5.1 [1] (1 mM xanthine compound), the “Growth, No Selection” value is listed as “+”. Also, the “Growth of EcpGEBO5.1 under selective conditions (in words)” value in the experiment with EcpGEBO5.1 [1] (1 mM xanthine in the growth medium) was “lack of growth; also recorded: did not enable growth”. The “Effect of xanthine on growth without selection” value with EcpGEBO5.1 + pZE21 (setting [9]) and in the experiment with EcpGEBO5.1 + pZE21_1H (setting [9]) was “unaffected” each time. Besides, the “OD600 of EcpGEBO5.1 + pZE21” value with EcpGEBO5.1 + pZE21 (xanthine 1.0 μM) was 0.02 ± 0.00; in the experiment on EcpGEBO5.1 + pZE21 (xanthine 1.5 μM), 0.02 ± 0.00; in the experiment on EcpGEBO5.1 + pZE21 (xanthine 2.0 μM), 0.02 ± 0.00; in the experiment on EcpGEBO5.1 + pZE21 (xanthine 2.5 μM), 0.03 ± 0.00; in the experiment on EcpGEBO5.1 + pZE21 (xanthine 4.5 μM), 0.03 ± 0.00; in the experiment on EcpGEBO5.1 + pZE21 (xanthine 12.5 μM), 0.03 ± 0.01. For the same compound, the “OD600 of EcpGEBO5.1 + pZE21_1H” value is given as 0.17 ± 0.01 in the experiment on EcpGEBO5.1 + pZE21_1H (xanthine 1.0 μM); 0.29 ± 0.01 in the experiment on EcpGEBO5.1 + pZE21_1H (xanthine 1.5 μM); 0.37 ± 0.00 in the experiment on EcpGEBO5.1 + pZE21_1H (xanthine 2.0 μM); 0.42 ± 0.00 with EcpGEBO5.1 + pZE21_1H (xanthine 2.5 μM); 0.50 ± 0.01 with EcpGEBO5.1 + pZE21_1H (xanthine 4.5 μM); 0.51 ± 0.01 with EcpGEBO5.1 + pZE21_1H (xanthine 12.5 μM). For the same compound, the Kd at mCTC8-4 aptamer was 8.5 ± 0.4 µM.

`O=C(N[C@H](CO)[C@H](O)c1ccc([N+](=O)[O-])cc1)C(Cl)Cl` [chloramphenicol]: the “Growth on antibiotic plate” value with EcpGEBO5.1 [2] (setting [3]) was “−”; in the experiment with EcpGEBO5.1 [2] (setting [4]), “+ (‘+’ single colonies (1-1000))”; in the experiment with EcpGEBO5.1 [2] (setting [5]) it was “+ (‘+’ single colonies (1-1000))”; with EcpGEBO5.1 [2] (setting [6]), “+ (‘+’ single colonies (1-1000))”; with EcpGEBO5.1 [2] (setting [7]) it was “++”; with EcpGEBO5.1 [2] (setting [8]), “++”. Besides, the “Colonies on single selection plates (in words)” value with EcpGEBO5.1 [2] is “numerous colonies”.

These data come from patent publication US20160186187A1, “REGULATABLE GENE EXPRESSION” (BIOSYNTIA APS, priority 2013, published 2016).
